Assay: Plasma pharmacokinetics of the parent compound after a single oral dose of prodrug
Type: in vivo
Conditions: single oral dose 10 mg/kg, fasted male Sprague Dawley rats, plasma analyzed for the parent compound
Method: Plasma pharmacokinetics of compounds was determined using three male Sprague Dawley rats following a single oral dose administration. All animals were placed in a rat metabolic cage, isolated, and fasted approximately 15 hours prior to dosing. Identifying markers were placed on each animal. Each animal was weighed prior to dose administration. Animals were administered orally with a solution formulation of test compound either in water or a combination of water/propylene glycol, at a dose of 10 mg/kg. Gavage needles were attached to syringes and filled with appropriate amount of test article to be dosed. Blood samples (approximately 500 μL) were collected from three rats at pre-dose (time 0), 0.5, 1, 2, 4, 8, 12 and 24 hr, respectively, depending on study duration. Samples were collected into labeled micro centrifuge tubes containing (heparin solution) as an anticoagulant. Plasma was immediately harvested from the blood by centrifugation at 14,000 rpm for 3 min at 4° C., and stored below −70° C. until bioanalysis. Individual plasma samples were analyzed for the parent compound, 3-[2-(4-carbamimidoyl-phenylcarbamoyl)-5-methoxy-4-vinyl-phenyl]-6-(cyclopropylmethyl-carbamoyl)-pyridine-2-carboxylic acid. As shown in Table-1, the test compounds yielded varying degrees of exposure to the parent compound. The test compounds generally provided for improved bioavailability of the parent compound as compared to dosing of the parent compound in aqueous solutions.

Row | Structure (SMILES) | AUC0-last hour (area under the curve) (study duration 12 h) | AUC0-last hour (area under the curve) (study duration 8 h)
1 | C=Cc1cc(C(=O)Nc2ccc(C(=N)NC(=O)OCCCCCC)cc2)c(-c2ccc(C(=O)NCC3CC3)nc2C(=O)OCc2oc(=O)oc2C)cc1OC [Compound 35a, (5-methyl-2-oxo-1,3-dioxol-4-yl)methyl 6-((cyclopropylmethyl)carbamoyl)-3-(2-((4-(N-((hexyloxy)carbonyl)carbamimidoyl)phenyl)carbamoyl)-5-methoxy-4-vinylphenyl)picolinate] | – | B (B = 1,001-10,000 ng/mL)
2 | C=Cc1cc(C(=O)Nc2ccc(C(=N)N)cc2)c(-c2ccc(C(=O)NCC3CC3)nc2C(=O)OCOC(=O)CN)cc1OC.Cl [Compound 37e, (2-aminoacetoxy)methyl 3-(2-((4-carbamimidoylphenyl)carbamoyl)-5-methoxy-4-vinylphenyl)-6-((cyclopropylmethyl)carbamoyl)picolinate Hydrochloride] | – | B (B = 1,001-10,000 ng/mL)
3 | C=Cc1cc(C(=O)Nc2ccc(C(=N)NC(=O)OCCCCCC)cc2)c(-c2ccc(C(=O)NCC3CC3)nc2C(=O)OC(C)OC(=O)OC(C)(C)C)cc1OC (stereo not shown) [Compound 41a, 1-((tert-butoxycarbonyl)oxy)ethyl 6-((cyclopropylmethyl)carbamoyl)-3-(2-((4-(N-((hexyloxy)carbonyl)carbamimidoyl)phenyl)carbamoyl)-5-methoxy-4-vinylphenyl)picolinate] | – | B (B = 1,001-10,000 ng/mL)
4 | C=Cc1cc(C(=O)Nc2ccc(C(=N)NC(=O)OCCCCCC)cc2)c(-c2ccc(C(=O)NCC3CC3)nc2C(=O)OCOC(=O)CN)cc1OC [Compound 45b, (2-aminoacetoxy)methyl 6-((cyclopropylmethyl)carbamoyl)-3-(2-((4-(N-((hexyloxy)carbonyl)carbamimidoyl)phenyl)carbamoyl)-5-methoxy-4-vinylphenyl)picolinate] | – | A (A = 0-1,000 ng/mL)
5 | C=Cc1cc(C(=O)Nc2ccc(C(=N)NC(=O)OC(C)OC(C)=O)cc2)c(-c2ccc(C(=O)NCC3CC3)nc2C(=O)OC(C)OC(=O)OC(C)C)cc1OC (stereo not shown) [Compound 47a, 1-((isopropoxycarbonyl)oxy)ethyl 3-(2-((4-(N-((1-acetoxyethoxy)carbonyl)carbamimidoyl)phenyl)carbamoyl)-5-methoxy-4-vinylphenyl)-6-((cyclopropylmethyl)carbamoyl) picolinate] | – | B (B = 1,001-10,000 ng/mL)
6 | C=Cc1cc(C(=O)Nc2ccc(C(=N)NC(=O)OC(C)OC(C)=O)cc2)c(-c2ccc(C(=O)NCC3CC3)nc2C(=O)OC(C)OC(=O)C(C)C)cc1OC (stereo not shown) [Compound 48b, 1-(isobutyryloxy)ethyl 3-(2-((4-(N-((1-acetoxyethoxy)carbonyl)carbamimidoyl)phenyl)carbamoyl)-5-methoxy-4-vinylphenyl)-6-((cyclopropylmethyl)carbamoyl)picolinate] | – | C (C >10,000 ng/mL)
7 | C=Cc1cc(C(=O)Nc2ccc(C(=N)NC(=O)OC(C)OC(=O)C(C)C)cc2)c(-c2ccc(C(=O)NCC3CC3)nc2C(=O)OC(C)OC(=O)OC(C)C)cc1OC (stereo not shown) [Compound 49a, 1-((isopropoxycarbonyl)oxy)ethyl 6-((cyclopropylmethyl)carbamoyl)-3-(2-((4-(N-((1-(isobutyryloxy)ethoxy)carbonyl)carbamimidoyl)phenyl)carbamoyl)-5-methoxy-4-vinylphenyl)picolinate] | – | B (B = 1,001-10,000 ng/mL)
8 | C=Cc1cc(C(=O)Nc2ccc(-c3noc(=O)[nH]3)cc2)c(-c2ccc(C(=O)NCC3CC3)nc2C(=O)OC(C)OC(=O)OC(C)C)cc1OC (stereo not shown) [Compound 52b, 1-((isopropoxycarbonyl)oxy)ethyl 6-((cyclopropylmethyl)carbamoyl)-3-(5-methoxy-2-((4-(5-oxo-4,5-dihydro-1,2,4-oxadiazol-3-yl)phenyl)carbamoyl)-4-vinylphenyl)picolinate] | – | A (A = 0-1,000 ng/mL)

Next, values leading:

Row | AUC0-last hour (area under the curve) (study duration 12 h) | AUC0-last hour (area under the curve) (study duration 8 h) | Structure (SMILES)
9 | B (B = 1,001-10,000 ng/mL) | – | C=Cc1cc(C(=O)Nc2ccc(C(=N)NC(=O)OCC)cc2)c(-c2ccc(C(=O)NCC3CC3)nc2C(=O)OCOC(=O)[C@@H](N)C(C)C)cc1OC [Compound 32c, (S)-((2-amino-3-methylbutanoyl)oxy)methyl 6-((cyclopropylmethyl)carbamoyl)-3-(2-((4-(N-(ethoxycarbonyl)carbamimidoyl)phenyl)carbamoyl)-5-methoxy-4-vinylphenyl)picolinate]
10 | B (B = 1,001-10,000 ng/mL) | – | C=Cc1cc(C(=O)Nc2ccc(C(=N)NC(=O)OC(C)OC(=O)[C@@H](N)C(C)C)cc2)c(-c2ccc(C(=O)NCC3CC3)nc2C(=O)O)cc1OC (stereo partly drawn) [Compound 33c, 3-(2-((4-(N-((1-(((S)-2-amino-3-methylbutanoyl)oxy)ethoxy)carbonyl)carbamimidoyl)phenyl)carbamoyl)-5-methoxy-4-vinylphenyl)-6-((cyclopropylmethyl)carbamoyl)picolinic acid]
11 | – | B (B = 1,001-10,000 ng/mL) | C=Cc1cc(C(=O)Nc2ccc(C(=N)NC(=O)OCC)cc2)c(-c2ccc(C(=O)NCC3CC3)nc2C(=O)OCc2oc(=O)oc2C)cc1OC [Compound 34a, (5-methyl-2-oxo-1,3-dioxol-4-yl)methyl 6-((cyclopropylmethyl)carbamoyl)-3-(2-((4-(N-(ethoxycarbonyl)carbamimidoyl)phenyl)carbamoyl)-5-methoxy-4-vinylphenyl)picolinate]
12 | – | C (C >10,000 ng/mL) | C=Cc1cc(C(=O)Nc2ccc(C(=N)NC(=O)OCCCCCC)cc2)c(-c2ccc(C(=O)NCC3CC3)nc2C(=O)OC(C)OC(=O)C(C)C)cc1OC (stereo not shown) [Compound 36b, 1-(isobutyryloxy)ethyl 6-((cyclopropylmethyl)carbamoyl)-3-(2-((4-(N-((hexyloxy)carbonyl)carbamimidoyl)phenyl)carbamoyl)-5-methoxy-4-vinylphenyl)picolinate]
13 | – | C (C >10,000 ng/mL) | C=Cc1cc(C(=O)Nc2ccc(C(=N)NC(=O)OCCCCCC)cc2)c(-c2ccc(C(=O)NCC3CC3)nc2C(=O)OC(C)OC(=O)OC(C)C)cc1OC (stereo not shown) [Compound 39a, 1-((isopropoxycarbonyl)oxy)ethyl 6-((cyclopropylmethyl)carbamoyl)-3-(2-((4-(N-((hexyloxy)carbonyl)carbamimidoyl)phenyl)carbamoyl)-5-methoxy-4-vinylphenyl)picolinate]
14 | – | C (C >10,000 ng/mL) | C=Cc1cc(C(=O)Nc2ccc(C(=N)NC(=O)OCC)cc2)c(-c2ccc(C(=O)NCC3CC3)nc2C(=O)OC(C)OC(=O)C(C)C)cc1OC (stereo not shown) [Compound 42a, 1-(isobutyryloxy)ethyl 6-((cyclopropylmethyl)carbamoyl)-3-(2-((4-(N-(ethoxycarbonyl)carbamimidoyl)phenyl)carbamoyl)-5-methoxy-4-vinylphenyl)picolinate]
15 | – | C (C >10,000 ng/mL) | C=Cc1cc(C(=O)Nc2ccc(C(=N)NC(=O)OCC)cc2)c(-c2ccc(C(=O)NCC3CC3)nc2C(=O)OC(C)OC(=O)OC(C)C)cc1OC (stereo not shown) [Compound 43a, 1-((isopropoxycarbonyl)oxy)ethyl 6-((cyclopropylmethyl)carbamoyl)-3-(2-((4-(N-(ethoxycarbonyl)carbamimidoyl)phenyl)carbamoyl)-5-methoxy-4-vinylphenyl)picolinate]
16 | – | A (A = 0-1,000 ng/mL) | C=Cc1cc(C(=O)Nc2ccc(C(=N)NC(=O)OCc3oc(=O)oc3C)cc2)c(-c2ccc(C(=O)NCC3CC3)nc2C(=O)O)cc1OC [Compound 44b, 6-((cyclopropylmethyl)carbamoyl)-3-(5-methoxy-2-((4-(N-(((5-methyl-2-oxo-1,3-dioxol-4-yl)methoxy)carbonyl)carbamimidoyl)phenyl)carbamoyl)-4-vinylphenyl)picolinic acid]
17 | – | B (B = 1,001-10,000 ng/mL) | C=Cc1cc(C(=O)Nc2ccc(C(=N)NC(=O)OCCCCCC)cc2)c(-c2ccc(C(=O)NCC3CC3)nc2C(=O)OCOC(=O)[C@@H](N)CC(C)C)cc1OC [Compound 50d, (S)-((2-amino-4-methylpentanoyl)oxy)methyl 6-((cyclopropylmethyl)carbamoyl)-3-(2-((4-(N-((hexyloxy)carbonyl)carbamimidoyl)phenyl)carbamoyl)-5-methoxy-4-vinylphenyl)picolinate]
18 | – | A (A = 0-1,000 ng/mL) | C=Cc1cc(C(=O)Nc2ccc(C(=N)NO)cc2)c(-c2ccc(C(=O)NCC3CC3)nc2C(=O)OC(C)OC(=O)OC(C)C)cc1OC (stereo not shown) [Compound 51b, 1-((isopropoxycarbonyl)oxy)ethyl 6-((cyclopropylmethyl)carbamoyl)-3-(2-((4-(N-hydroxycarbamimidoyl)phenyl)carbamoyl)-5-methoxy-4-vinylphenyl)picolinate]
19 | – | B (B = 1,001-10,000 ng/mL) | C=Cc1cc(C(=O)Nc2ccc(C(=N)NC(=O)OC(C)OC(=O)[C@@H](N)C(C)C)cc2)c(-c2ccc(C(=O)NCC3CC3)nc2C(=O)OC(C)OC(=O)OC(C)C)cc1OC (stereo partly drawn) [Compound 54c, 1-((isopropoxycarbonyl)oxy)ethyl 3-(2-((4-(N-((1-(((S)-2-amino-3-methylbutanoyl)oxy)ethoxy)carbonyl)carbamimidoyl)phenyl)carbamoyl)-5-methoxy-4-vinylphenyl)-6-((cyclopropylmethyl)carbamoyl)picolinate]

— US20210198204A1, “PRODRUGS OF KALLIKREIN INHIBITORS” (BioCryst Pharmaceuticals, Inc., priority 2016, published 2021)
